Laboratory results as given in patent publication US9211296B2, “Therapeutic compounds for blocking DNA synthesis of POX viruses” (priority 2007, dated 2015).
pEC50, pIC50: −log10 of the molar value. “Also recorded” adds a separate entry of the source. Like-named read-outs stand apart in the source and are kept apart here.

Key:
BSC-1 cells [1] = test: Cell viability at plaque IC50, MTT assay; conditions: at plaque IC50 (1.6 μM), 16 h
Procedure: (§1) The cell viability at the plaque IC50 value was performed using two independent methods, cell counting and MTT assay. For the cell counting method, cells were incubated overnight at 37° C. to sub-confluency in 48-well plates. The compounds dissolved in DMSO, were further diluted in media to a final concentration required to achieve the plaque IC50 value. The cells were incubated with the compounds for 24 hrs. The media was removed, the cells trypsinized and stained with tryphan blue, and counted. The MTT assay was also used to confirm cell viability at the plaque IC50. Cells were seeded at 1.5×10^4 cells/well in a 96-well plate and incubated overnight at 37° C. at 5% CO2. […] Each well received 20 μL of the MTT solution (5 mg MTT/mL PBS) and the plate was rocked for 5 min. The plates were incubated for an additional 5 h to metabolize MTT, after which the media was removed, and the plates were air dried. To resuspend the formazan, the end product of the MTT assay, 200 μL of DMSO was added to each well and the plates were rocked for 5-10 min. Absorbance was read at 560 nm.

[2] = system: vaccinia early E3 protein; type: cell-based, vaccinia virus
[3] = biological target: vaccinia E9 DNA polymerase (Vaccinia virus (strain Western Reserve) (VACV) (Vaccinia virus (strain WR)), UniProt P06856); test: biochemical
vaccinia late L1 protein = type: cell-based, vaccinia virus
[4] = system: vaccinia early gene E3 mRNA; type: cell-based, vaccinia virus
BSC-1 cells [5] = test: Cell viability at plaque IC50, cell counting; conditions: at plaque IC50 (1.6 μM), 24 hrs
Procedure: as §1

[6] = system: vaccinia late gene F9 mRNA; type: cell-based, vaccinia virus
BSC-1 cells [7] = test: aCella-TOX GAPDH release cytotoxicity assay (viridicatumtoxin study); conditions: cells exposed to 200 μM
[8] = as above; conditions: African green monkey, BSC-1 cells
vaccinia virus [9] = conditions: African green monkey
vaccinia virus [10] = type: cell-based
vaccinia virus [11] = test: microbe, parasite or virus in culture; conditions: Orthopoxvirus vaccinia, BSC-1, 16 h, read-out: Plaque IC50
BSC-1 cells [12] = conditions: 100 μM
[13] = biological target: vaccinia E9 polymerase (Vaccinia virus (strain Western Reserve) (VACV) (Vaccinia virus (strain WR)), UniProt P06856); type: biochemical
[14] = biological target: vaccinia triad (A20, D4, E9) (Vaccinia virus (strain Western Reserve) (VACV) (Vaccinia virus (strain WR)), UniProt P06856); type: biochemical
[15] = biological target: triad (A20, D4, E9) (Vaccinia virus (strain Western Reserve) (VACV) (Vaccinia virus (strain WR)), UniProt P06856); type: biochemical
in vitro = conditions: African green monkey
vaccinia virus [16] = test: microbe, parasite or virus in culture; type: cell-based; conditions: Orthopoxvirus vaccinia

## COc1cc(O)c2c(O)c3c(c4c2c1[C@]1(C4)C(C)=CCCC1(C)C)[C@H](O)[C@@]1(O)CC(O)=C(C(N)=O)C(=O)[C@@]1(O)C3=O [Viridicatumtoxin, viridicatumtoxin]
BSC-1 cells [1]
  % cell viability on plaque IC50, MTT: 83 ± 16%
BSC-1 cells [1]; listed as viridicatumtoxin
  % cell viability on plaque IC50, MTT: about 85%
[2]
  Early E3 protein level: no significant difference in the levels of E3
[3]
  pIC50: 4.20
Vaccinia late L1 protein
  Late L1 protein level: significantly decreased
[4]
  Early E3 mRNA production: maximum at 3 h.p.i. and dropped back to low levels by 5 h.p.i.
BSC-1 cells [5]
  % cell viability on plaque IC50, Cell count: 92 ± 23%
BSC-1 cells [5]; listed as viridicatumtoxin
  % cell viability on plaque IC50, Cell count: About 90%
[6]
  Late F9 mRNA expression: only a marginal increase in F9 mRNA expression by 5 h.p.i.
BSC-1 cells [7]
  Cytotoxicity at highest exposure: not cytotoxic
[8]
  CC50: > 200 µM
Vaccinia virus [9]
  Concentration at which the cells began to detach: ≥ 100 µM
Vaccinia virus [10]
  Blocking the replication of vaccinia virus in cells: particularly effective
Vaccinia virus [11]
  pIC50: 5.80

## Oc1ccc(Cl)cc1Sc1cc(Cl)ccc1O [NSC 55636, 2,2′-thiobis(4-chlorophenol)]
BSC-1 cells [12]
  Cell Cytotoxicity: 14%
BSC-1 cells [12]; listed as 55636
  Cell Cytotoxicity: 14%
[13]
  Effect on E9 polymerase activity on the uniform template: prevented E9 from incorporating nucleotides on the uniform template; also recorded: inhibited the catalytic activity of E9 DNA polymerase; also recorded: blocked polymerase activity
  Targeted Activity (% Inhibition): Polymerase: Polymerase (74%)
[14]
  Effect on synthesis of M13 DNA: blocked by increasing concentrations
[15]
  Effect on DNA synthesis by the triad on the distal template: also blocked the distal template
In vitro
  CC50: > 200 µM
Vaccinia virus [16]; BSC-1, 1 h, read-out: Inhibition of plaques
  inhibition at 100 µM: 95%
Vaccinia virus [16]; BSC-1, read-out: EC50 (concentration at which compound reduced plaques by 50%)
  pEC50: 5.30
Vaccinia virus [10]
  Blocking the replication of vaccinia virus in cells: effective in blocking the replication of vaccinia virus in cells
